The text below walks through data of patent publication US10870886B2, “Molecular diagnosis of FSHD by epigenetic signature” (University of Massachusetts Medical Center, priority 2014, dated 2020).

The test system of assay [1] is ANKRD1 (Ankyrin Repeat Domain 1). Nature of the assay: ANKRD1 mRNA expression by qRT-PCR in drug-treated myocytes (control gene). Type of assay: cell-based, human. The settings on record: myocytes of cohorts 07 and 19, affected (A) and control (U). The protocol: (§1) Drug treatment. Stock solutions of 100 mM 5-Aza-2′-deoxycytidine/Decitabine, (Sigma-Aldrich A3656) in DMSO, 5 mM Trichostatin A solution (TSA, Sigma-Aldrich T1952), and 10 mM chaetocin (Sigma-Aldrich C9492) in DMSO were stored at −20° C. and diluted with PBS just before adding to the culture. To minimize culturing artifacts, low passage (<30 population doublings) myoblast cultures were used for all experiments and culture pairs for affected vs healthy or affected vs nonmanifesting were within 1 passage of each other in all instances. Myoblasts were seeded on collagen-coated plates at a cell density of 1.9×10^3/cm^2. Starting the following day, Decitabine (5 μM final concentration) was added daily for a total of 3 days. When used, TSA (200 nM final concentration) or chaetocin (50 nM final concentration) was added to the cells for the last 24 hrs prior to sampling.
qRT-PCR. Total RNAs were extracted using Trizol (Invitrogen) and purified using the RNeasy Mini kit (Qiagen) after on-column DNase I digestion. Total RNA (2 μg) was used for cDNA synthesis using Superscript III Reverse Transcriptase (Invitrogen), and 200 ng of cDNA were used for DUX4-fl qPCR analysis as described. All data were normalized to levels of 18S rRNA [98]. Oligonucleotide primer sequences are provided in [33]. For the analysis of ANKRD1 mRNA expression, 40 ng of cDNA were used with primers hANKRD1 For: […] […]
A general note: Real-time PCR tracks product formation cycle by cycle.

In a further assay the test system is DUX4-fl. The assay is described as follows: DUX4-fl mRNA expression by qRT-PCR in myogenic cells treated with epigenetic drugs. Type of assay: cell-based, human. The note with it: for DUX4-fl response: cells from nonmanifesting subjects 15B, 28B, 30B; for DUX4-fl levels: healthy control myogenic cells (five cohorts). The protocol: as §1
qRT-PCR. Total RNAs were extracted using Trizol (Invitrogen) and purified using the RNeasy Mini kit (Qiagen) after on-column DNase I digestion. Total RNA (2 μg) was used for cDNA synthesis using Superscript III Reverse Transcriptase (Invitrogen), and 200 ng of cDNA were used for DUX4-fl qPCR analysis as described. All data were normalized to levels of 18S rRNA [98]. Oligonucleotide primer sequences are provided in [33]. For the analysis of ANKRD1 mRNA expression, 40 ng of cDNA were used with primers hANKRD1 For: […] (SEQ ID NO: 16) and Rev: […] (SEQ ID NO: 17).

Setting [2] is: cells from FSHD1 individuals manifesting weakness 15A, 28A, 29A, 30A.
[3] abbreviates: myogenic cells of FSHD1-affected subject 03A, relative to untreated, Decitabine 5 μM daily 3 days, TSA 200 nM last 24 hrs.

With `CC(/C=C/C(=O)NO)=C\[C@@H](C)C(=O)c1ccc(N(C)C)cc1` [TSA, Trichostatin A], the ANKRD1 expression result in assay [1] is “induced ANKRD1 expression”. Also, the DUX4-fl expression entry in the assay with DUX4-fl (setting [2]) is given as “little to no effect”; with DUX4-fl (cohorts 07 and 19), “no effect”. Besides, the DUX4-fl response result in the assay with DUX4-fl was “little to no response”. Besides, the DUX4-fl levels result in the assay with DUX4-fl was “no effect”. Further, the DUX4-fl induction result with DUX4-fl (setting [3]) is “showed induction”.

For `Nc1ncn([C@H]2C[C@H](O)[C@@H](CO)O2)c(=O)n1` [Decitabine, 5-aza-2′-deoxycytidine], the DUX4-fl expression entry with DUX4-fl (setting [2]) is given as “induced DUX4-fl expression”. Moreover, in the assay with DUX4-fl, the DUX4-fl response entry is listed as “little to no response”. In addition, the DUX4-fl induction in the assay on DUX4-fl (cohort 07, as quoted in FIG. 22 legend from FIG. 20) is reported as 20 fold; with DUX4-fl (cohort 19, as quoted in FIG. 22 legend from FIG. 20), 32 fold; in the assay with DUX4-fl (setting [3]), 50 fold; in the assay with DUX4-fl (myogenic cells of FSHD1-affected subject 07A, relative to untreated) it was 120 fold; with DUX4-fl (myogenic cells of FSHD1-affected subject 09A), “did not show induction”; with DUX4-fl (myogenic cells of FSHD1-affected subject 17A, relative to untreated), 3.2 fold. Also, the DUX4-fl induction in the assay on DUX4-fl (myogenic cells of FSHD1-affected subject 19A, relative to untreated) is 122 fold. Further, in the assay on DUX4-fl, the DUX4-fl levels result is “only mildly induced”.
